Several values for one entry are separate records, joined by “and”; a condition that tells them apart may be missing. Equal values may be shown once.
Key:
[1] = system: Human cervical epithelial cells (ME-180); assay: ME-180 cell growth with jasmonic acid (hemocytometer counting); assay type: cell-based; conditions: 1, 10 and 100 μg/ml, two days
Protocol: Human cervical epithelial cells (ME-180, ATCC) were propagated in culture at 37° C. using 5% CO2 in McCoy's 5A media (Invitrogen) with 10% heat-inactivated fetal bovine serum (Invitrogen). Jasmonic acid (Sigma) was diluted in the ME-180 media to 100, 10, and 1 microgram/mL.
ME-180 cells were plated in 12-well plates at a concentration of 5×10^4 cells per well in 2 mL of media. The cells were allowed to grow for 1 day. Cells in three wells were counted by trypsinizing and using a hemocytometer to determine cell number on day zero. The media was removed from all other wells and was replaced with fresh media, 100, 10, or 1 μg/mL jasmonic acid-containing media (2 mL) in triplicate. Cells were counted on days 1 and 2 to determine the effect of the jasmonic acid on cell growth.

human skin keratinocytes = assay: Keratinocyte proliferation, 96-well Cell Titer 96 assay; assay type: cell-based; conditions: for Cell Proliferation, Mean (absorbance at 490 nm) / Cell Proliferation, Median (absorbance at 490 nm): 48 hours, n=5
Protocol: The proliferative response of these human skin keratinocytes to the test compounds was measured in a 96-well assay system using keratinocyte basal medium (KBM, Clonetics, catalog number CC-3103) as a control. […] In addition, 100 μl of vehicle KBM was added to 5 wells as control. […] The spectrophotometric absorbance of each well was read at 490 nm.

[2] = system: collagen production in human skin fibroblast cell line; assay: Collagen production by human skin fibroblasts (Takara EIA MK101); assay type: cell-based; conditions: for Collagen Production, Mean (absorbance at 450 nm) / Collagen Production, Median (absorbance at 450 nm): 48 hours, n=2
Protocol: The cells were first grown in a 96-well assay system using Dulbecco's Modified Eagle's Medium (DMEM) with 10% fetal bovine serum (FBS) both purchased from Sigma Chemical Co, St. Louis, Mo. Serum-free DMEM was used as a control.
The assay was done by using the recommended 20 ul of the supernatant from each well of the 96-well plate. Standard buffer and stop solutions were freshly prepared before running the assay. 100 ul of antibody-POD conjugate solution (supplied with the kit) was added into the wells using pre antibody coated 96 well plate (supplied with the kit). 20 ul of standard and test solutions (from the other 96-well plate containing fibroblasts) were added to appropriate wells. Plate was mixed gently, sealed and incubated for three hrs. at 37° C.
After incubation each well was washed carefully four times with PBS buffer (400 ul). All the wells were completely emptied at the end of washing from any liquid.
100 ul of substrate solution (hydrogen peroxide and tetramethylbenzidine in a buffer solution, supplied with the kit) was added to each well and the plate was incubated for 15 minutes. At this point 100 ul of stop solution (freshly prepared 1N H2SO4) was added to each well in the same order as substrate. The plate was gently mixed and absorbance was read at 450 nm.

[3] = system: fibronectin production in human skin fibroblast cell line; assay: Fibronectin production by human skin fibroblasts (Takara EIA MK115); assay type: cell-based; conditions: for fibronectin production, Mean (absorbance at 450 nm) / fibronectin production, Median (absorbance at 450 nm): 48 hours, n=2
Protocol: The cells were first grown in a 96-well assay system using Dulbecco's Modified Eagle's Medium (DMEM) with 10% fetal bovine serum (FBS) both purchased from Sigma Chemical Co, St. Louis, Mo. Serum-free DMEM was used as a control. […] The fibronectin assay was performed using the recommended 100 μl of the supernatant from each well of the 96-well plate. Standard buffer and stop solutions were freshly prepared before running the assay. A pre-antibody-coated 96 well plate (provided with the kit) was used to transfer the test samples and control. The plate was mixed, sealed and incubated for 1 hour at 37° C. All the wells were washed after removing sample solutions, 3 times (300 μl) with washing buffer. 100 ul of antibody-POD conjugate solution was added into the wells. Plate was mixed, sealed and incubated for one hour at 37° C. Solutions were removed and the wells were washed 3 times with washing buffer. All the wells were completely emptied at the end of washing from any liquid. 100 μl of substrate solution (hydrogen peroxide and tetramethylbenzidine in a buffered solution) was added to each well and the plate was incubated at room temperature for 15 minutes. 100 μl of stop solution (freshly prepared 1N H2SO4) was added to each well in the same order as substrate. The plate was gently mixed and absorbance was read at 450 nm.

stratum corneum = assay: Dansyl chloride cell renewal study in healthy female volunteers; assay type: in vivo, human
Text: The stratum corneum renewal time is the time taken for the whole thickness of the stratum corneum to be exfoliated and replaced by new cells from the dividing epidermis. This renewal time is a fundamental indicator of skin health. […] See Jansen L H, Hojyo-Tomoko M T, Kligman A M., Improved fluorescence staining technique for estimating turnover of the human stratum corneum, Br J Dermatol., 90, 9-12, 1974; Ridge B D, Batt M D, Palmer H E, Jarrett A, The dansyl chloride technique for stratum corneum renewal as an indicator of changes in epidermal mitotic activity following topical treatment., Br J Dermatol., 118, 167-74, 1988; Grove G L, Kligman A M, Age-associated changes in human epidermal cell renewal., J Geron., 38, 137-142, 1983. The time required for the dye to disappear is therefore an indication of the turnover time of the stratum corneum. Therefore, any differences in the time required for the dye to disappear from treated and non-treated sites can be considered to be an expression of that product's ability to enhance epidermal renewal.
A dansyl chloride cell renewal study was conducted in healthy female volunteers ranging from 43-64 years of age. The study consisted of a two-week treatment period during which time the products were applied topically twice daily, including on weekend days, to the test sites. The area of application was designated, approximately 5 cm×10 cm on the upper inner arm. The other arm served as a control with no product application. […] Eight females received jasmonic acid and seven females received gibberellic acid.
The time required for a marker dye to disappear was used as the measure of cell renewal rate.

With `CC/C=C\C[C@H]1C(=O)CC[C@@H]1CC(=O)O` [jasmonic acid] the “ME-180 epithelial cell growth (FIGS. 8 and 9)” value [1] was “increased cell growth in a dose dependent manner”, the “Cell Proliferation, Mean (absorbance at 490 nm)” value (“Cell Proliferation, Mean” below) (human skin keratinocytes; 1×10^−4 M) was 0.5732 and the “Cell Proliferation, Median (absorbance at 490 nm)” value (from here on “Cell Proliferation, Median”) (human skin keratinocytes; 1×10^−4 M) was 0.5860. For the same molecule, the “cell proliferating activity on human keratinocytes (summary in words)” value (human skin keratinocytes; 1×10^−4 to 1×10^−6 M) was “strong cell proliferating activity”, the “Cell Proliferation, Mean” value (human skin keratinocytes; 1×10^−5 M) was 0.7628 and the “Cell Proliferation, Median” value (human skin keratinocytes; 1×10^−5 M) was 0.7750. The “Cell Proliferation, Mean” value (human skin keratinocytes; 1×10^−6 M) was 0.7734, the “Cell Proliferation, Median” value (human skin keratinocytes; 1×10^−6 M) was 0.7970 and the “Collagen Production, Mean (absorbance at 450 nm)” value (“Collagen Production, Mean” for short) ([2]; 1×10^−4 M) was 0.8040. The “Collagen Production, Median (absorbance at 450 nm)” value (“Collagen Production, Median” below) ([2]; 1×10^−4 M) was 0.8040, the “collagen production in human fibroblasts (summary in words)” value ([2]; 1×10^−4 to 1×10^−6 M) was “stimulate collagen production” and the “Collagen Production, Mean” value ([2]; 1×10^−5 M) was 0.7895. For the same molecule, the “Collagen Production, Median” value ([2]; 1×10^−5 M) was 0.7895, the “Collagen Production, Mean” value ([2]; 1×10^−6 M) was 0.7475 and the “Collagen Production, Median” value ([2]; 1×10^−6 M) was 0.7475. For the same molecule, the “fibronectin production, Mean (absorbance at 450 nm)” value (“fibronectin production, Mean” for short) ([3]; 1×10^−4 M) was 0.2060, the “fibronectin production, Median (absorbance at 450 nm)” value (shortened to “fibronectin production, Median”) ([3]; 1×10^−4 M) was 0.2060 and the “fibronectin production, Mean” value ([3]; 1×10^−5 M) was 0.2025. The “fibronectin production, Median” value ([3]; 1×10^−5 M) was 0.2025, the “fibronectin production, Mean” value ([3]; 1×10^−6 M) was 0.1955 and the “fibronectin production, Median” value ([3]; 1×10^−6 M) was 0.1955. The “fibronectin production in human fibroblasts (summary in words)” value ([3]; all concentrations tested, vs control) was “effective”, the “skin irritation or redness” value (stratum corneum; human, in vivo) was “no visible sign of any skin irritation or redness” and the “RENEWAL, time for cell renewal of treated skin” value (stratum corneum; individual patients (one value per patient #), 0.25% in hyaluronic acid (0.5% aqueous solution), topical twice daily, upper inner arm, listed as JA) was 16 Days and 15 Days (2×) and 17 Days and 14 Days and 11 Days and 12 Days (2×). The “faster cell renewal rate over control” value (stratum corneum; overall, 0.25% topical, vs untreated arm) was 28% and the “reduction in time required for cell renewal vs untreated control” value (stratum corneum; vs volunteers' control without treatment) was “about 28%”.
